{"source": "patent US8541460B2", "about": "“PDK-1/Akt signaling inhibitors” (The Ohio State University, priority 2003, dated 2013)", "key": {"NCI-H226": {"system": "NCI-H226", "experiment": "NCI DTP cell line screen (SRB), Non-Small Cell Lung Cancer", "assay_type": "cell-based, human", "experimental": "(§1) Screening of compounds 70 and 71 against several cancer cell lines The human tumor cell lines of the cancer screening panel are grown in RPMI 1640 medium containing 5% fetal bovine serum and 2 mM L-glutamine. For a typical screening experiment, cells are inoculated into 96 well microtiter plates in 100 μL at plating densities ranging from 5,000 to 40,000 cells/well depending on the doubling time of individual cell lines. After cell inoculation, the microtiter plates are incubated at 37° C., 5% CO2, 95% air and 100% relative humidity for 24 h prior to addition of experimental drugs.\n(§2) After 24 h, two plates of each cell line are fixed in situ with TCA, to represent a measurement of the cell population for each cell line at the time of drug addition (Tz). Experimental drugs are solubilized in dimethyl sulfoxide at 400-fold the desired final maximum test concentration and stored frozen prior to use. At the time of drug addition, an aliquot of frozen concentrate is thawed and diluted to twice the desired final maximum test concentration with complete medium containing 50 μg/ml gentamicin. Additional four, 10-fold or ½ log serial dilutions are made to provide a total of five drug concentrations plus control. Aliquots of 100 μl of these different drug dilutions are added to the appropriate microtiter wells already containing 100 μl of medium, resulting in the required final drug concentrations.\n(§3) Following drug addition, the plates are incubated for an additional 48 h at 37° C., 5% CO2, 95% air, and 100% relative humidity. For adherent cells, the assay is terminated by the addition of cold TCA. Cells are fixed in situ by the gentle addition of 50 μl of cold 50% (w/v) TCA (final concentration, 10% TCA) and incubated for 60 minutes at 4° C. The supernatant is discarded, and the plates are washed five times with tap water and air dried. Sulforhodamine B (SRB) solution (100 μl) at 0.4% (w/v) in 1% acetic acid is added to each well, and plates are incubated for 10 minutes at room temperature. After staining, unbound dye is removed by washing five times with 1% acetic acid and the plates are air dried. Bound stain is subsequently solubilized with 10 mM trizma base, and the absorbance is read on an automated plate reader at a wavelength of 515 nm. For suspension cells, the methodology is the same except that the assay is terminated by fixing settled cells at the bottom of the wells by gently adding 50 μl of 80% TCA (final concentration, 16% TCA). Using the seven absorbance measurements [time zero, (Tz), control growth, (C), and test growth in the presence of drug at the five concentration levels (Ti)], the percentage growth is calculated at each of the drug concentrations levels. Percentage growth inhibition is calculated as: [(Ti−Tz)/(C−Tz)]×100 for concentrations for which Ti>/=Tz [(Ti−Tz)/Tz]×100 for concentrations for which Ti<Tz\n(§4) Three dose response parameters are calculated for each experimental agent. […] The drug concentration resulting in total growth inhibition (TGI) is calculated from Ti=Tz. […] Values are calculated for each of these three parameters if the level of activity is reached; however, if the effect is not reached or is exceeded, the value for that parameter is expressed as greater or less than the maximum or minimum concentration tested.\n(§5) The methods described were used to test compounds 70 and 71 on a panel of sixty cell lines under a screening service provided by the Developmental Therapeutics Program at the National Institutes of Health. Shown in FIG. 1C are 1, RPMI-8226 leukemia cells; 2; NCI-H322M non-small cell lung cancer cells; 3, HT29 colon cancer cells; 4, U251 CNS cancer cells; 5, SK-MEL-28 melanoma cancer cells; 6, SK-OV-3 ovarian cancer cells; 7, RXF 393 renal cancer cells; 8, PC-3 prostate cancer cells; 9, MDA-MB-231 breast cancer cells."}, "recombinant PDK-1": {"target": "T1, recombinant PDK-1 (Homo sapiens, UniProt O15530)", "T1 construct": "purchased Upstate (Lake Placid, N.Y.)", "T1 sequence (O15530 1-556)": "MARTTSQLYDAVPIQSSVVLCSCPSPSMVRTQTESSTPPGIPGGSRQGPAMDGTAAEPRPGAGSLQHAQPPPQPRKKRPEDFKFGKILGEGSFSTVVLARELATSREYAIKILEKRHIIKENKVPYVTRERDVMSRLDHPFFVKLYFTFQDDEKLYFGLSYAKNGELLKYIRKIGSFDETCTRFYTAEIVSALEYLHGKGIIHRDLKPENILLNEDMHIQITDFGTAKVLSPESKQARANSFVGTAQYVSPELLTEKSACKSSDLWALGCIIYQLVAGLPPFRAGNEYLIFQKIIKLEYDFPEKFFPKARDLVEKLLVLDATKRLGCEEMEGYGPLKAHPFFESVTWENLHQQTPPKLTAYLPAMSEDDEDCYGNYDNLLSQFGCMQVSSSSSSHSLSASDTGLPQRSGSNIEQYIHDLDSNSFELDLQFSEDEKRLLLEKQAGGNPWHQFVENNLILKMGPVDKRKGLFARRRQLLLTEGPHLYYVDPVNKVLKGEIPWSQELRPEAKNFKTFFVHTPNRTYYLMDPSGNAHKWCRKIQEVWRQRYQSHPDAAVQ", "experiment": "PDK-1 kinase activity (Upstate kit, cell-free)", "assay_type": "biochemical", "quoted_text": "PDK-1 kinase activity This in vitro assay was performed using a PDK-1 kinase assay kit (Upstate, Lake Placid, N.Y.) according to the vendor's instructions. This cell-free assay is based on the ability of recombinant PDK-1, in the presence of DMSO vehicle or the test agent, to activate its downstream kinase serum- and glucocorticoid-regulated kinase (SGK.) which, in turn, phosphorylates the Akt/SGK-specific peptide substrate RPRAATF with [γ-^32]-ATP. […] The reported values represent the means of two independent determinations."}, "U251": {"system": "U251", "experiment": "NCI DTP cell line screen (SRB), CNS Cancer", "assay_type": "cell-based, human", "experimental": "as §1, §2, §3, §4, §5"}, "SNB-19": {"system": "SNB-19", "experiment": "NCI DTP cell line screen (SRB), CNS Cancer", "assay_type": "cell-based, human", "experimental": "as §1, §2, §3, §4, §5"}}}
{"smiles": "NCC(=O)Nc1ccc(-n2nc(C(F)(F)F)cc2-c2ccc3c(ccc4ccccc43)c2)cc1", "note": "[Compound 70, 2-Amino-N-{4-[5-(2-phenanthrenyl)-3-(trifluoromethyl)-1H-pyrazol-1-yl]-phenyl}-acetamide]", "values": [{"measurement": "Percent Growth", "setting": "NCI-H226; Log10 Concentration −4.0", "result": "−48", "unit": "%"}, {"measurement": "Percent Growth", "setting": "NCI-H226; Log10 Concentration −5.0", "result": "−58", "unit": "%"}, {"measurement": "Percent Growth", "setting": "NCI-H226; Log10 Concentration −6.0", "result": 59, "unit": "%"}, {"measurement": "Percent Growth", "setting": "NCI-H226; Log10 Concentration −7.0", "result": 98, "unit": "%"}, {"measurement": "Percent Growth", "setting": "NCI-H226; Log10 Concentration −8.0", "result": 100, "unit": "%"}, {"measurement": "TGI", "setting": "NCI-H226; in M (unit assumed)", "result": "3.21E−06"}, {"measurement": "increase in potency over compound 59 (PDK-1 inhibition)", "setting": "recombinant PDK-1", "result": "two"}, {"measurement": "TGI", "setting": "U251", "result": "2.64E−06"}, {"measurement": "Percent Growth", "setting": "U251; Log10 Concentration −4.0", "result": "−18", "unit": "%"}, {"measurement": "Percent Growth", "setting": "U251; Log10 Concentration −5.0", "result": "−63", "unit": "%"}, {"measurement": "Percent Growth", "setting": "U251; Log10 Concentration −6.0", "result": 46, "unit": "%"}, {"measurement": "Percent Growth", "setting": "U251; Log10 Concentration −7.0", "result": 82, "unit": "%"}, {"measurement": "Percent Growth", "setting": "U251; Log10 Concentration −8.0", "result": 100, "unit": "%"}, {"measurement": "TGI", "setting": "SNB-19", "result": "3.15E−06"}, {"measurement": "Percent Growth", "setting": "SNB-19; Log10 Concentration −4.0", "result": "−39", "unit": "%"}, {"measurement": "Percent Growth", "setting": "SNB-19; Log10 Concentration −5.0", "result": "−59", "unit": "%"}, {"measurement": "Percent Growth", "setting": "SNB-19; Log10 Concentration −6.0", "result": 59, "unit": "%"}, {"measurement": "Percent Growth", "setting": "SNB-19; Log10 Concentration −7.0", "result": 94, "unit": "%"}, {"measurement": "Percent Growth", "setting": "SNB-19; Log10 Concentration −8.0", "result": 87, "unit": "%"}]}
